Results published in ChEMBL document CHEMBL2150904, “A new class of pyrimidine nucleosides: inhibitors of hepatitis B and C viruses” (Bioorg Med Chem Lett, 2012).
Converted amounts (≈) assume the structure as drawn. The source made the active and inactive calls. The calls are words filed in the database; no cut-off is given here.

How the values were obtained:
[1] = system: Duck hepatitis B virus; test: Antiviral activity against Duck hepatitis B virus infected in pekin duck primary hepatocytes assessed as inhibition of viral replication at 10 ug/mL; type: functional; conditions: Hepatocyte, in Anas platyrhynchos
[2] = system: Duck hepatitis B virus; test: Antiviral activity against Duck hepatitis B virus infected in pekin duck primary hepatocytes assessed as inhibition of viral replication; type: functional, organism-based; conditions: Hepatocyte
[3] = system: Hepatitis B virus; test: Antiviral activity against Hepatitis B virus infected in human HepG2(2.2.15) cells assessed as inhibition of viral replication at 10 ug/mL; type: functional
[4] = system: Hepatitis B virus; test: Antiviral activity against Hepatitis B virus infected in human HepG2(2.2.15) cells assessed as inhibition of viral replication; type: functional, organism-based
[5] = system: Hepatitis C virus; test: Antiviral activity against Hepatitis C virus subtype 1a infected in human HuH7 cells at 20 ug/mL after 2 days by q-PCR analysis; type: functional, Hepacivirus hominis; conditions: Huh-7, 48 h
[6] = Cytotoxicity against human HuH7 cells after 2 days by XTT assay; type: cell-based, Huh-7
[7] = system: Hepatitis C virus; test: Antiviral activity against Hepatitis C virus subtype 1a infected in human HuH7 cells at 10 ug/mL after 2 days by q-PCR analysis; type: functional, Hepacivirus hominis; conditions: Huh-7, 48 h
[8] = system: Hepatitis C virus; test: Antiviral activity against Hepatitis C virus subtype 1a infected in human HuH7 cells at 5 ug/mL after 2 days by q-PCR analysis; type: functional, Hepacivirus hominis; conditions: Huh-7, 48 h
[9] = system: Hepatitis C virus; test: Potentiation of ribavirin antiviral activity against Hepatitis C virus subtype 1a infected in human HuH7 cells at 5 ug/mL after 2 days by q-PCR analysis; type: functional, organism-based; conditions: Hepacivirus hominis, Huh-7
[10] = system: Hepatitis C virus; test: Ratio of ribavirin EC50 to compound EC50 for Hepatitis C virus subtype 1a; type: functional, Hepacivirus hominis
[11] = system: Hepatitis C virus; test: Antiviral activity against Hepatitis C virus subtype 1a infected in human HuH7 cells after 2 days by q-PCR analysis; type: functional, organism-based, Hepacivirus hominis; conditions: Huh-7, 48 h
[12] = system: Hepatitis C virus; test: Antiviral activity against Hepatitis C virus subtype 1a infected in human HuH7 cells at 20 to 50 ug/mL after 2 days by q-PCR analysis; type: functional, Hepacivirus hominis, Huh-7
[13] = system: Duck hepatitis B virus; test: Antiviral activity against Duck hepatitis B virus infected in pekin duck primary hepatocytes assessed as inhibition of viral replication at 0.5 to 1 ug/mL; type: functional, Hepatocyte
[14] = system: Hepatitis B virus; test: Antiviral activity against Hepatitis B virus infected in human HepG2(2.2.15) cells assessed as inhibition of viral replication at 0.5 to 1 ug/mL; type: functional

Row | Structure (SMILES) | inhibition at 10 µg/mL [1] [%] | EC50 [2] [µg/mL] | inhibition at 10 µg/mL [3] [%] | EC50 [4] [µg/mL] | inhibition at 20 µg/mL [5] [%] | CC50 at 48 h [6] [µg/mL] | inhibition at 10 µg/mL [7] [%] | inhibition at 5 µg/mL [8] [%] | Activity [9] | Ratio EC50 [10] | EC50 [11] [µg/mL] | inhibition (INH) [12] [%] | inhibition (INH) [13] [%] | inhibition (INH) [14] [%]
1 | Cc1cn([C@H]2C=C[C@@H](C(=O)O)O2)c(=O)[nH]c1=O | 63 | 2.5 (≈ 10.5 µM) | 58 | 5 (≈ 21 µM) | 0 | > 250 | – | – | – | – | – | – | – | –
2 | COC(=O)[C@@H]1CC[C@H](n2ccc(N)nc2=O)O1 | 90 | 0.5 (≈ 2.09 µM) | 63 | 5 (≈ 20.9 µM) | – | > 250 | 50 | 38 | Active | >2 | 10 (≈ 41.8 µM) | – | – | –
3 | NC(=O)c1ncn([C@@H]2O[C@H](CO)[C@@H](O)[C@H]2O)n1 [RIBAVIRIN] | – | – | – | – | – | – | 35 | – | – | – | 20 (≈ 81.9 µM) | 50 | – | –
4 | CC(=O)O[C@H]1C[C@H](n2cc(F)c(=O)[nH]c2=O)O[C@@H]1C(=O)O | 0 | – | 0 | – | 0 | > 250 | – | – | – | – | – | – | – | –
5 | Nc1ccn([C@@H]2CS[C@H](CO)O2)c(=O)n1 [LAMIVUDINE] | – | – | – | – | – | – | – | – | – | – | – | – | 96 | 88
6 | [N-]=[N+]=N[C@H]1C[C@H](n2ccc(=O)[nH]c2=O)O[C@@H]1C(=O)O | 62 | 5 (≈ 18.7 µM) | 50 | 10 (≈ 37.4 µM) | 40 | > 250 | – | – | – | – | > 20 | – | – | –
7 | Cc1cn([C@H]2CC=C(C(=O)O)O2)c(=O)[nH]c1=O | 65 | 2.5 (≈ 10.5 µM) | 61 | 5 (≈ 21 µM) | 50 | > 250 | – | – | – | – | 20 (≈ 84 µM) | – | – | –
8 | O=C(O)[C@@H]1CC[C@H](n2ccc(=O)[nH]c2=O)O1 | 0 | – | 0 | – | 0 | > 250 | – | – | – | – | – | – | – | –
9 | Cc1cn([C@H]2C[C@H](N=[N+]=[N-])[C@@H](C(=O)O)O2)c(=O)[nH]c1=O | 55 | 5 (≈ 17.8 µM) | 50 | 10 (≈ 35.6 µM) | 30 | > 250 | – | – | – | – | – | – | – | –
10 | N=c1ccn([C@H]2CC[C@@H](C(=O)O)O2)c(=O)[nH]1 | 80 | 0.5 (≈ 2.22 µM) | 60 | 5 (≈ 22.2 µM) | 0 | > 250 | – | – | – | – | – | – | – | –
